According to article PMC10239507, “Development of allosteric and selective CDK2 inhibitors for contraception with negative cooperativity to cyclin binding” (Nature Communications, 2023):

Assays:
Assay in all cases: biochemical
[1] = molecular target: T1, 371 kinases (kinase named in each endpoint) (Homo sapiens, UniProt Q9UL54); conditions: TAOK2/TAO1
T1 construct: purchased Reaction Biology

[2] = molecular target: T2, 371 kinases (kinase named in each endpoint) (Homo sapiens, UniProt O75116); conditions: ROCK2
T2 construct: purchased Reaction Biology
T2 sequence (O75116 whole entry): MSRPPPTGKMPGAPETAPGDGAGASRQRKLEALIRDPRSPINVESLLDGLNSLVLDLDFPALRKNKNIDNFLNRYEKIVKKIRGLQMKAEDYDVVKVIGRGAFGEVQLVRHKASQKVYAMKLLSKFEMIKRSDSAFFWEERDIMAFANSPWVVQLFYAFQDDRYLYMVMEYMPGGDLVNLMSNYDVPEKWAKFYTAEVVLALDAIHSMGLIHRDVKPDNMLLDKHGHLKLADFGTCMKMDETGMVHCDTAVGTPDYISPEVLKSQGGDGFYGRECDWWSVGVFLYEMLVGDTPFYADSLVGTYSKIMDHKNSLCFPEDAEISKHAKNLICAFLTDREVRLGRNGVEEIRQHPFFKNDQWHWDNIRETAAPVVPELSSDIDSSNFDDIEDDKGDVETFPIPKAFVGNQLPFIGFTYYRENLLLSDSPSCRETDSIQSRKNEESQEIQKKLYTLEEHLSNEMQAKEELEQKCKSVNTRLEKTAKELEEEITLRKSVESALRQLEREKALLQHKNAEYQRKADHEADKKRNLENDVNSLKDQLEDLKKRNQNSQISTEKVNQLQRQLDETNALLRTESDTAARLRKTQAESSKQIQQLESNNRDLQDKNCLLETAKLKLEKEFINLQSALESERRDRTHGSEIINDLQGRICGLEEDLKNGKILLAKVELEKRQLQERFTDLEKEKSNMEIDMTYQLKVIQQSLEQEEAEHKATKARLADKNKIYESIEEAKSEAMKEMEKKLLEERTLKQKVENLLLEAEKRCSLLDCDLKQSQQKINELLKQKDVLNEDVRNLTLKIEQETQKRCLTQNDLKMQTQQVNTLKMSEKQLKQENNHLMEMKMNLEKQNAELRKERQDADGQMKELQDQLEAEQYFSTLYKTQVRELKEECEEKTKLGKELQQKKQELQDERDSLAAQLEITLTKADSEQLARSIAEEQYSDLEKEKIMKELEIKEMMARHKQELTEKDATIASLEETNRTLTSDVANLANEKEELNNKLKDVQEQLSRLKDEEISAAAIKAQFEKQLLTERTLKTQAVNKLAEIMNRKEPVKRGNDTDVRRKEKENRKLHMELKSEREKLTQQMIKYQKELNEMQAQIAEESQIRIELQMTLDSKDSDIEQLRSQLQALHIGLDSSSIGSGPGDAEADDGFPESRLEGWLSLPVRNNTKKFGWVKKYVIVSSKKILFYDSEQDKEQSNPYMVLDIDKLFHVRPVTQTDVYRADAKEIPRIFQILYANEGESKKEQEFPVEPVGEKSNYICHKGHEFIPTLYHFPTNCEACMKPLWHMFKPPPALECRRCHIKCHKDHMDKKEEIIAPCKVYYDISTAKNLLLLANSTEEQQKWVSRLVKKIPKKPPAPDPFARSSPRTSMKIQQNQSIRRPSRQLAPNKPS

[3] = molecular target: T3, 371 kinases (kinase named in each endpoint) (Homo sapiens, UniProt O95819); conditions: HGK/MAP4K4
T3 construct: purchased Reaction Biology

[4] = molecular target: T4, 371 kinases (kinase named in each endpoint) (Homo sapiens, UniProt P08069); conditions: IGF1R
T4 construct: purchased Reaction Biology
T4 sequence (P08069 31-1367): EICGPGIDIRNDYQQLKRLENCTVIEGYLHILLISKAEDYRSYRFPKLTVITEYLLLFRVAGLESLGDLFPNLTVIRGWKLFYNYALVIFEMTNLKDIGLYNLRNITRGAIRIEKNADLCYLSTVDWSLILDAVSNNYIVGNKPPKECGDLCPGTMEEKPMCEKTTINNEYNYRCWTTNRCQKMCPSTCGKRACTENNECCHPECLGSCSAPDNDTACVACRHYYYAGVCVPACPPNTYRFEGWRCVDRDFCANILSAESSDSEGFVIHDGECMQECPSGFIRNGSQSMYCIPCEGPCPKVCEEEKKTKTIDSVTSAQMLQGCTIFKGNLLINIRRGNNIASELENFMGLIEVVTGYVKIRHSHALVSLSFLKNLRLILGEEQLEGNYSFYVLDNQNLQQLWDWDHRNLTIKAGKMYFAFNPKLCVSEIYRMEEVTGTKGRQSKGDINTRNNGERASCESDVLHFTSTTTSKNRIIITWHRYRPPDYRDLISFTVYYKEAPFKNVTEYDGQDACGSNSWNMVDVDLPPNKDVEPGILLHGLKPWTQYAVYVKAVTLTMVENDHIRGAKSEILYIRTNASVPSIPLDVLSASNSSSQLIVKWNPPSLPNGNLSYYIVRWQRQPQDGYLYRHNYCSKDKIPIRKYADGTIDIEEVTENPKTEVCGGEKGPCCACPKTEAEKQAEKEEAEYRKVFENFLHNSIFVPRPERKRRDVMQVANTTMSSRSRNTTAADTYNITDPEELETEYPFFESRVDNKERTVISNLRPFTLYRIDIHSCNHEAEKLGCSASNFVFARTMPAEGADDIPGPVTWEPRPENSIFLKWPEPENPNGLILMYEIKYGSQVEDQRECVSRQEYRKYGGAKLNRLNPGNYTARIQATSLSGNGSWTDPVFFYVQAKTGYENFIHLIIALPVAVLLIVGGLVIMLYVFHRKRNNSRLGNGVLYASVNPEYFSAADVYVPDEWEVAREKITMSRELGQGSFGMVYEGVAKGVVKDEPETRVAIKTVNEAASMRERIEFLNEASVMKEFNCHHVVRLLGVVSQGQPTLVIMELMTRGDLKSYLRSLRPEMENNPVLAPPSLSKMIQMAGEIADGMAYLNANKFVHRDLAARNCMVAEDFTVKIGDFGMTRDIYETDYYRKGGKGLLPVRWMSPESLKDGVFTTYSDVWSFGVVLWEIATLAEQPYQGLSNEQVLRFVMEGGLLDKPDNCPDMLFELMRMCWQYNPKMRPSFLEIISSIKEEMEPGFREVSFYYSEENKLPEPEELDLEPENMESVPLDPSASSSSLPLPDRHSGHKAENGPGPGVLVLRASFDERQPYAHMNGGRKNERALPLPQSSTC

[5] = molecular target: T5, 371 kinases (kinase named in each endpoint) (Homo sapiens, UniProt P35626); conditions: GRK3
T5 construct: purchased Reaction Biology

[6] = molecular target: T6, 371 kinases (kinase named in each endpoint) (Homo sapiens, UniProt P37023); conditions: ALK1/ACVRL1
T6 construct: purchased Reaction Biology
T6 sequence (P37023 22-503): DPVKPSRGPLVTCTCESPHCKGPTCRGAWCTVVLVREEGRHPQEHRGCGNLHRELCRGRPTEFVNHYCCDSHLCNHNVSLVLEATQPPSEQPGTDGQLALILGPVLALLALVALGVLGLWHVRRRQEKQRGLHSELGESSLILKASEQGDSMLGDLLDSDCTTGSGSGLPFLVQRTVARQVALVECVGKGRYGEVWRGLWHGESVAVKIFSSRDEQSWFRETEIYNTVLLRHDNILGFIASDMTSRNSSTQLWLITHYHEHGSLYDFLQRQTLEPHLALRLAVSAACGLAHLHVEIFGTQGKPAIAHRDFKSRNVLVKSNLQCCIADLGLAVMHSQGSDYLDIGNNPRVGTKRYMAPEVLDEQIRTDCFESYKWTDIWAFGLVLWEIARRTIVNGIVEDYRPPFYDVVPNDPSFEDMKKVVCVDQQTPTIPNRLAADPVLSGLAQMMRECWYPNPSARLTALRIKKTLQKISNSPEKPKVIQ

[7] = molecular target: T7, 371 kinases (kinase named in each endpoint) (Homo sapiens, UniProt Q9Y2H1); conditions: STK38L/NDR2
T7 construct: purchased Reaction Biology
T7 sequence (Q9Y2H1 whole entry): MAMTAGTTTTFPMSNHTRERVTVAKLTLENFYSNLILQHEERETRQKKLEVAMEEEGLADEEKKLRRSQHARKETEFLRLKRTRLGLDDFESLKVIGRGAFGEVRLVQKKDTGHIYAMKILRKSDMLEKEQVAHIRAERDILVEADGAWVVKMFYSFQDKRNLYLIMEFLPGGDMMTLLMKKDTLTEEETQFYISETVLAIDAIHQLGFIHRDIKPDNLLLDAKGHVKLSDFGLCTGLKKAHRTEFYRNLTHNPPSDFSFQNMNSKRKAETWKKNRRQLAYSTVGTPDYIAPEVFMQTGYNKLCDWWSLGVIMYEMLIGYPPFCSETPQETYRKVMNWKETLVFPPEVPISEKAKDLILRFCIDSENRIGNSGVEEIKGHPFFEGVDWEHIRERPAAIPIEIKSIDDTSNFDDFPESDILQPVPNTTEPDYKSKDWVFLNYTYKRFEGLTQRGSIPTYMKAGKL

T1 sequence (Q9UL54 whole entry): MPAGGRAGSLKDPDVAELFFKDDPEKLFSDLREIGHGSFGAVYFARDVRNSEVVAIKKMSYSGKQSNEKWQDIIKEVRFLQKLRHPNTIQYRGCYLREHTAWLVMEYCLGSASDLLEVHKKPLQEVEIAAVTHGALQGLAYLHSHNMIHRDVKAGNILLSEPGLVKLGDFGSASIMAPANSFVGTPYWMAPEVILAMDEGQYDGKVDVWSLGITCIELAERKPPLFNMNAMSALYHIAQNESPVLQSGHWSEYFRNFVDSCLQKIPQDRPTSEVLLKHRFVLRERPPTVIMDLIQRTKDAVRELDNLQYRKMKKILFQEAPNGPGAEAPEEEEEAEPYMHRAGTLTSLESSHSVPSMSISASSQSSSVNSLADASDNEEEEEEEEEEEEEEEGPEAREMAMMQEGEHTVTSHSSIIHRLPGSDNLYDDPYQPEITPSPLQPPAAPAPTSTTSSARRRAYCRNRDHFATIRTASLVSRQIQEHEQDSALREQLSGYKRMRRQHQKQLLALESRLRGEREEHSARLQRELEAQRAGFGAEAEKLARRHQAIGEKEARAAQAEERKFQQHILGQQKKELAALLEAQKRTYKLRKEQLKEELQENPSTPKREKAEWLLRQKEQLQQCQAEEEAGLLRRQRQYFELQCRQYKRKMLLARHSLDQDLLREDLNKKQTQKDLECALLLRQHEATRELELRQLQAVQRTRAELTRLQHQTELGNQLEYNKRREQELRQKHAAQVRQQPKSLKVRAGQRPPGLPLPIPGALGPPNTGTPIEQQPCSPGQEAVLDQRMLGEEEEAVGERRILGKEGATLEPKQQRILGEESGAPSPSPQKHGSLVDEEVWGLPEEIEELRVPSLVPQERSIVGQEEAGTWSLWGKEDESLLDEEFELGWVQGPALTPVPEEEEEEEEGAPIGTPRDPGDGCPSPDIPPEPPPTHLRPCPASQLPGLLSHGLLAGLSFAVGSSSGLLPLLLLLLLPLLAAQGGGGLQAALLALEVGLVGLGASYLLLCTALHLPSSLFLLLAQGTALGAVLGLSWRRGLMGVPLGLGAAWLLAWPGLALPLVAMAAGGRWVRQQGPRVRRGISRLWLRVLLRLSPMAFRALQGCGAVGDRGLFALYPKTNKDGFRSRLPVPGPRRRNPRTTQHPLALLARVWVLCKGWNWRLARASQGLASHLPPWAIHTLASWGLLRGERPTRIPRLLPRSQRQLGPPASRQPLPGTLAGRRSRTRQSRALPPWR

O=C(O)c1cc(C(F)(F)F)ccc1NCCc1c[nH]c2cc(Br)ccc12 [Compound 5, 2-((2-(6-Bromo-1H-indol-3-yl)ethyl)amino)−5-(trifluoromethyl)benzoic Acid]
activity at 10 µM [1]: 100.9 ± 0.2%
activity at 10 µM [2]: 90 ± 2%
activity at 10 µM [3]: 50.4 ± 0.4%
activity at 10 µM [4]: 93.2 ± 0.1%
activity at 10 µM [5]: 93.7 ± 1.2%
activity at 10 µM [6]: 67.3 ± 1.4%
activity at 10 µM [7]: 94 ± 0.9%
